Results as given in publication PMC9030223, “MBP-11901 Inhibits Tumor Growth of Hepatocellular Carcinoma through Multitargeted Inhibition of Receptor Tyrosine Kinases” (Cancers, 2022).

How the values were obtained:
C6 = experiment: CCK-8 cell proliferation/cytotoxicity assay; format: cell-based; conditions: Rattus norvegicus, C6, 24 h
Description: (§1) Cell proliferation was detected using the Cell Counting Kit-8 (CCK-8, Cat. CK04-13; Dojindo Laboratories, Kumamoto, Japan) according to the manufacturer’s instruction. To evaluate cytotoxicity, cells were seeded in a 96-well plate (FHC, 1 × 10^4 cells/well; Caki-2, PLC/PFR.5, and MCF 10A, 1 × 10^4 cells/well; AML12, HepG2, Hep3B, and Huh-7 1.2 × 10^4 cells/well; HeLa, HEK-293, A549, and PC-3, 1.5 × 10^4 cells/well; HT-29, MCF-7, C6, and NE-4C, 2 × 10^4 cells/well). After attachment and stabilization of cells for 24 h, the medium was switched with fresh containing various concentrations (0, 1, 5, 10, 25, 50, and 100 μM) of MBP-11901, and cells were incubated for 22 h. Next, CCK-8 solution was added to each well, and cells were incubated for another 2 h. Absorbance was then measured at 450 nm using a microplate reader (SpectraMax i3, Molecular Devices, San Jose, CA, USA). The IC50 and log IC50 values were calculated using GraphPad Prism (version 5.02; GraphPad PRISM software Inc. San Diego, CA, USA). All experiments were independently performed 3 times. The graph of log IC50 values represents average values.

Caki-2 = experiment: CCK-8 cell proliferation/cytotoxicity assay; format: cell-based; conditions: Homo sapiens, CAKI-2, 24 h
Description: as §1

[1] = test system: FHC colon epithelial cells; experiment: CCK-8 cell proliferation/cytotoxicity assay; format: cell-based; conditions: Homo sapiens, FHC normal cells, 24 h
Description: as §1

HEK-293 = experiment: CCK-8 cell proliferation/cytotoxicity assay; format: cell-based; conditions: Homo sapiens, HEK293; HEK-293 normal cells, 24 h
Description: as §1

HT-29 = experiment: CCK-8 cell proliferation/cytotoxicity assay; format: cell-based; conditions: Homo sapiens, HT-29, 24 h
Description: as §1

HeLa = experiment: CCK-8 cell proliferation/cytotoxicity assay; format: cell-based; conditions: Homo sapiens, 24 h
Description: as §1

Hep3B = experiment: CCK-8 cell proliferation/cytotoxicity assay; format: cell-based; conditions: Homo sapiens, 24 h treatment
Description: as §1

HepG2 = experiment: CCK-8 cell proliferation/cytotoxicity assay; format: cell-based; conditions: Homo sapiens; HepG2, 24 h treatment
Description: as §1

Huh-7 = experiment: CCK-8 cell proliferation/cytotoxicity assay; format: cell-based; conditions: Homo sapiens; Huh-7, 24 h treatment
Description: as §1

MCF-7 = experiment: CCK-8 cell proliferation/cytotoxicity assay; format: cell-based; conditions: Homo sapiens, MCF7; MCF-7, 24 h
Description: as §1

[2] = test system: MCF10a breast epithelial cells; experiment: CCK-8 cell proliferation/cytotoxicity assay; format: cell-based; conditions: Homo sapiens, MCF-10A; MCF10a normal cells, 24 h
Description: as §1

NE-4C = experiment: CCK-8 cell proliferation/cytotoxicity assay; format: cell-based; conditions: Mus musculus; NE-4C normal cells, 24 h
Description: as §1

PC3 = experiment: CCK-8 cell proliferation/cytotoxicity assay; format: cell-based; conditions: Homo sapiens, PC-3; PC3, 24 h
Description: as §1

PLC/PRF5 = experiment: CCK-8 cell proliferation/cytotoxicity assay; format: cell-based; conditions: Homo sapiens, PLC-PRF-5; PLC/PRF5, 24 h treatment
Description: as §1

HepG2 cells = experiment: Flow cytometry analysis of cell death (sub-G1); format: cell-based, human; conditions: 50 μM
Description: Approximately 1.5 × 10^6 HepG2 cells were suspended in […] PBS, and then […] 95% ethanol was added while vortexing. […] Incubation was continued at 37 °C for 30 min. Cellular DNA was then stained by applying […] propidium iodide (50 μg/mL) for 30 min at 25 °C. Stained cells were analyzed on a FACScan flow cytometer for relative DNA content based on increased red fluorescence.

[3] = test system: cleaved PARP and active caspase-3 in HepG2 cells; experiment: Western blot of apoptosis markers; format: cell-based, human; conditions: HepG2, time- and dose-dependent
Description: HepG2 cells were seeded in a 60 mm^2 culture dish at a density of 1.5 × 10^6 cells/dish and incubated for 24 h. Cells were treated with MBP-11901 for 24 h. Cells were harvested and protein extraction and Western blotting methods were performed as previously described. Membranes were incubated using the following diluted primary antibodies; PARP (1:1000 dilution), caspase-3 (1:1000 dilution), cleaved caspase-3 (1:1000 dilution), pFLT3 (1:500 dilution), Ras (1:1000 dilution), pc-Raf (1:1000 dilution), pMEK1/2 (1:1000 dilution), pERK1/2 (1:1000 dilution), pAKT (1:1000 dilution), pmTOR (1:1000 dilution), pVEGFR2 (1:1000 dilution), pPDGFR β (1:2000 dilution), and β-actin (1:1000 dilution) in Tris-HCl-based buffer containing 0.2% Tween-20 (T1027, Biosesang, Seongnam, Korea) (TBS-T; pH 7.5). Membranes were then incubated with horseradish-conjugated secondary antibodies (1:5000, Cell Signaling Technologies, Beverly, MA, USA) for 1 h at 25 °C. After washing with TBS-T, immunoreactive bands were visualized using the chemiluminescence western imaging system (Supernova-Q1800TM, Centronics, Daejeon, Korea). Band intensities were measured using ImageJ (Version 1.50i; US National Institutes of Health, Bethesda, MD, USA) and were normalized to β-actin.

Huh-7 xenograft tumor = experiment: Huh-7 subcutaneous xenograft; format: in vivo, mouse; conditions: Huh-7 subcutaneously implanted model
Description: We further verified the effectiveness of MBP-11901 by constructing a mouse model in which Hep3B and Huh-7 were subcutaneously transplanted in addition to the human liver cancer cell line HepG2. In the case of Hep3B, the administration was initiated at a tumor volume of about 300 mm^3, once every 2 d, and the experiment was terminated after a total of 12 administrations (Figure S5). […] In contrast, tumors had completely disappeared in 1 out of 6 animals in the MBP-11901 group; 1 had only a trace of a tumor measuring approximately 30 mm^3, whereas the average tumor volume in the 6 animals was approximately 100 mm^3. […] Unlike Nexavar®, there were no side-effects relating to drug resistance or rapid tumor growth.

## NCC(N)C(=O)Nc1ccc(-c2nc3ccccc3s2)cc1 (centres unmarked) [MBP-11901]
C6
  IC50: 77.8 ± 9.73 µM
Caki-2
  IC50: 75.7 ± 3.44 µM
[1]
  IC50: 72.7 ± 1.99 µM
HEK-293
  IC50: 68.2 ± 2.79 µM
HT-29
  IC50: 29.86 ± 0.27 µM
HeLa
  IC50: 41.9 ± 3.38 µM
Hep3B
  IC50: 16.8 ± 0.88 µM
HepG2
  IC50: 5.16 ± 1.37 µM
Huh-7
  IC50: 29.4 ± 1.13 µM
MCF-7
  IC50: 65.9 ± 12.3 µM
[2]
  IC50: 65.1 ± 1.88 µM
NE-4C
  IC50: 36.8 ± 3.66 µM
PC3
  IC50: 95 ± 0.82 µM
PLC/PRF5
  IC50: 18.6 ± 0.81 µM
HepG2 cells; 8 h
  SubG1: 10.26%
HepG2 cells; 16 h
  SubG1: 17.39%
HepG2 cells; 24 h
  SubG1: 34.68%
[3]
  levels of cleaved PARP and active caspase-3: high levels
Huh-7 xenograft tumor
  tumor disappearance: did not result in tumor disappearance
  tumor weight: significantly reduced
